# Assay results: PMC10487708, “Chlorin E6-Curcumin-Mediated Photodynamic Therapy Promotes an Anti-Photoaging Effect in UVB-Irradiated Fibroblasts” (International Journal of Molecular Sciences, 2023)
# Like-named read-outs stand apart in the source and are kept apart here.
# Key:
# [1] = ABTS radical scavenging activity; format: biochemical
# Description: […] in 2.5 mM potassium persulfate for more than 16 h to develop 7 mM 2,2′-azinobis-(3-ethylbenzothiazoline-6-sulfonic acid diammonium salt) (ABTS), and ethanol was diluted to obtain an absorbance of 0.3 at 620 nm. Each composite sample was diluted by concentration, and 100 μL of the sample was put into each well along with 50 μL each of ABTS reagent and solvent; reacted at room temperature for 10 min, and absorbance was measured at 620 nm. ABTS activity inhibition (%) = 100 − [test group-blank]/(control group-blank) × 100]
# [2] = system: COX-2, TNF-α, iNOS; experiment: Western blot of COX-2, TNF-α and iNOS in UVB-induced 3T3 fibroblasts; format: cell-based, mouse; details: for UVB-upregulated COX-2 and TNF-α protein levels: fibroblast cells
# Excerpt: We further investigated the expressions of COX-2, TNF-α, and MMP-1 to ascertain the effect of UVB on the expressions of NF-κB and AP-1-dependent genes. These genes have an NF-κB and AP-1 functional binding site in their promoter regions and are linked to inflammation.
# Figure 10 Effect of Ce6-curcumin derivatives-PDT on UVB-induced COX-2 and iNOS expressions. […] Representative bars are expressed as mean only.
# (§1) The cells were lysed with RIPA lysis buffer containing protease inhibitor cocktails (Gen-DEPOT, Katy, TX, USA). Cell lysates were vortexed and centrifuged at 13,000 rpm for 15 min at 4 °C. Protein concentration was determined using the Bradford protein assay kit, and the same amount of protein was separated by SDS-PAGE gel. Then, proteins were transferred to a polyvinylidene fluoride (PVDF) membrane. Further, the membranes were blocked with a blocking solution containing 5% skim milk in Tris-buffered saline containing Tween 20 (TBST) for 1 h and incubated overnight with the primary antibody diluted in 5% skim milk in TBST at 4 °C. Then, the membrane was rinsed with TBST for 30 min and incubated with horseradish peroxidase-conjugated secondary antibodies in a blocking solution for 1 h. All bands were visualized by using an enhanced chemiluminescence (ECL) kit (Pierce, Rockford, IL, USA) under a luminescent image analyzer (Amersham, GE Healthcare, Chicago, IL, USA). The primary antibodies against MMP-1 were obtained from Thermo Fischer Scientific Inc. (NYSE: TMO). Antibodies directed against p-p65, p65, p-p38, p38, p-ERK, ERK, p-c-JUN, and c-JUN were purchased from Cell Signaling Technology Inc. (Beverley, MA, USA). COX-2 and β-Actin antibodies were from Santa Cruz Biotechnology (Santa Cruz, CA, USA), while TNF-α antibodies were procured from Novus Biologicals, Inc. (Centennial, CO, USA).
# [3] = MTT cytotoxicity of Ce6-curcumin derivative PDT in BALB/c 3T3 cells; format: cell-based, mouse; details: mouse, BALB/c 3T3 cells; 3 h treatment, 660 nm 20 J/cm^2, MTT after 24 h, tested 200 to 6400 nM; read-out: IC50 cytotoxicity against BALB/c 3T3 cells
# Description: MTT assay was used to evaluate viability after 24 h. IC50 values were calculated using GraphPad Prism 5 software.
# (§2) Hs68 and BALB/c 3T3 cell viability was measured using a 3-[4,5-dimethylthylthiazol-2-yl]-2,5 diphenyl tetrazolium bromide (MTT) assay. The cells were cultured in 24-well plates at a density of 3 × 10^4 cells per well or BALB/c 3T3 cells at a density of 1 × 10^4 cells per well. […] The Hs68 cells were then exposed to LED light (660 nm; 89 W/m^2; 20 J/cm^2) for 37 min 27 s and incubated for 3 h. […] The cells were washed and treated with MTT, after which the plates were incubated at 37 °C in the dark for 2 h. After the formation of formazan, 100 µL of DMSO was added, and the absorbance was measured at 570 nm using a microtiter plate reader (Thermo-scientific, Skanlt software 5.0, Waltham, MA, USA)
# [4] = system: Hs68 cells; experiment: MTT cell viability of Hs68 cells with or without LED light; format: cell-based, human; details: for IC50: Homo sapiens, light or radiation study, Hs68 cells; for cytotoxicity for Hs68 cells: dark, up to 1000 nM
# Description: Data were represented as mean ± SD from at least three independent experiments and analyzed by one-way ANOVA with Tukey’s post hoc test, * p < 0.01, compared with vehicle-treated control.
# as §2
# [5] = system: UVB-irradiated BALB/c 3T3 cells; experiment: MTT cell viability of UVB-irradiated BALB/c 3T3 cells; format: cell-based, mouse; details: UVB 200 mJ/cm^2, 0.2–8 μM, 24 h
# Description: To investigate the proper dose of UVB irradiation, BALB/c 3T3 cells were exposed to different doses of UVB (50, 100, 200, 800, 1600 mJ/cm^2) for 24 h. […] Therefore, the dose of 200 mJ/cm^2 was used in the subsequent in vitro studies to evaluate the protective effect of Ce6-PDT. The effect of Ce6-curcumin derivatives on BALB/c 3T3 cell viability was evaluated with the MTT assay.
# Figure 6 The effect of Ce6-curcumin derivatives on UVB-irradiated BALB/c 3T3 cells. (A) Cell viability of BALB/c 3T3 cells irradiated with different doses of UVB (50, 100, 200, 800, 1600 mJ/cm^2) for 24 h. […] Data were represented as mean ± SD from at least three independent experiments and analyzed by one-way ANOVA with Tukey’s post hoc test, * p < 0.01, compared with UVB-treated groups.
# BALB/c 3T3 cells were seeded at a density of 1 × 10^4 cells/well in 96-well plates for 24 h. The culture medium was replaced with phosphate-buffered saline (PBS), and the cells were pretreated with UVB (200 mJ/cm^2) before being incubated for 24 h incubation in an FBS-free medium containing different concentrations of Ce6-curcumin derivatives. Cell viability was measured by MTT assay.
# [6] = system: p-ERK, p-p38, JNK MAPK, p-NF-κB p65, p-c-JUN; experiment: Western blot of MAPK, NF-κB and c-JUN signaling in UVB-induced 3T3 fibroblasts; format: cell-based, mouse; details: 3T3 cells; for phosphorylation level of JNK MAPK / phosphorylation levels of ERK and p38 MAPKs: PDT after UVB treatment
# Excerpt: One of the major factors of UVB-induced skin aging is inflammation-mediated skin aging. In UVB-induced skin photoaging, increased intracellular ROS can promote MMP production by activating the MAPK, AP-1, and NF-κB pathways. […] Ce6-diPEG-curcumin-PDT and Ce6-propane-curcumin-PDT lowered the phosphorylation levels of ERK and p38 MAPKs but not those of JNK MAPK.
# Figure 9 Effect of Ce6-curcumin derivatives-PDT on MAPK, NF-κB and c-JUN signaling proteins. Protein expressions of p-p38, p-38, p-ERK, ERK, p-c-JUN, c-JUN, p-p65 and p65 in the UVB-induced murine 3T3 fibroblast cell line after Ce6-diPEG-curcumin (150 and 200 μΜ) and Ce6-propane-curcumin (75 and 100 μΜ)-PDT treatment. Representative bars are expressed as mean only.
# as §1
# [7] = LED light, read-out: LED Condition (EC50, μM) ABTS radical scavenging
# [8] = dark, read-out: Dark Condition (EC50, μM) ABTS radical scavenging
# [9] = LED 660 nm 20 J/cm^2, MTT, read-out: Phototoxicity (IC50)
# [10] = without LED irradiation, MTT, read-out: Dark Toxicity (IC50)
SMILES,"EC50 [1, 7]","EC50 [1, 8]",UVB-upregulated COX-2 and TNF-α protein levels ([2]; 75 and 100 μΜ),IC50 [3],"IC50 [4, 9]","IC50 [4, 10]",cytotoxicity for Hs68 cells [4],"phototoxicity toward human dermal fibroblasts, Hs68 ([4]; with PDT, up to a dose of 1000 nM)",cell viability of UVB-irradiated BALB/c 3T3 cells [5],UVB-induced increases in p-NF-κB p65 and p-c-JUN ([6]; 75 and 100 μM followed by laser irradiation),phosphorylation level of JNK MAPK [6],phosphorylation levels of ERK and p38 MAPKs [6],ABTS EC50 value compared to the standard antioxidant 5-ALA hydrochloride ([1]; dark),"expression levels of iNOS and COX-2 ([2]; 200 nM, PDT, UVB-induced 3T3)",UVB-upregulated COX-2 and TNF-α protein levels ([2]; 150 and 200 μΜ),concentration from which cytotoxicity was shown in UVB-irradiated BALB/c 3T3 cells [5],UVB-induced increases in p-NF-κB p65 and p-c-JUN ([6]; 150 and 200 μM followed by laser irradiation)
C=Cc1c(C)c2cc3nc(c(CC(=O)OC)c4[nH]c(cc5nc(cc1[nH]2)C(C)=C5CC)c(C)c4C(=O)NCCCNC(=O)CCCC(=O)Oc1ccc(/C=C/C(=O)CC(=O)/C=C/c2ccc(O)c(OC)c2)cc1OC)C(CCC(=O)OC)C3C (stereo not shown) [Ce6-propane-curcumin],34.9 ± 8.16 µM,18.9 ± 3.04 µM,downregulated these increases,2040 nM,≥ 1000 nM,≥ 1000 nM,almost no cytotoxicity,no phototoxicity,not affected,greatly reversed this trend,not,lowered,–,–,–,–,–
C=Cc1c(C)c2cc3nc(c(CC(=O)OC)c4[nH]c(cc5nc(cc1[nH]2)C(C)=C5CC)c(C)c4C(=O)NCCCOCCOCCOCCCNC(=O)CCCC(=O)Oc1ccc(/C=C/C(=O)CC(=O)/C=C/c2ccc(O)c(OC)c2)cc1OC)C(CCC(=O)OC)C3C (stereo not shown) [Ce6-diPEG-curcumin],22.3 ± 2.62 µM,15.51 ± 0.01 µM,–,830 nM,693 nM,≥ 1000 nM,almost no cytotoxicity,–,–,–,not,lowered,~74%,below those seen in the normal control,downregulated these increases,≥ 4 µM,greatly reversed this trend
